Source: patent US7482371B2, “N-phenylbenzamide derivatives as drugs for the treatment of COPD” (Rottapharm S.p.A., priority 2004, dated 2009)

What was measured:
[1] = system: newborn rat cultured DRG neurons; assay: [Ca2+]i mobilization in cultured DRG neurons (Fura-2); assay type: cell-based
Procedure: Dorsal root ganglia (DRG) were removed from 1-3 days old rats and dissociated into single cells according to well established procedures. Cells, plated on coated glass coverslips were loaded with Fura-2-AM-ester to detect relative intracellular calcium ([Ca^2+]i) changes.
During the Ca^2+ fluorescence the cells were excited with electrical stimulation (10 Hz, 1 ms, 0.40 mA/cm^2 for 10 sec) twice with a resting period between each stimulation of 20 min. These experiments were performed in the presence or absence of 100 nM charybdotoxin.

[2] = system: slices of rat dorsal spinal cord; assay: CGRP-LI outflow from slices of rat dorsal spinal cord (EIA); assay type: cell-based
Procedure: (§1) Slices of guinea pig trachea and bronchi or of rat dorsal spinal cord were prepared and transferred to perfusion chambers and perfused. After an equilibration period, samples were collected before, during and after the delivery of an excitatory stimulus (KCl 80 mM). The effect of Andolast was compared with the effect of its vehicle. CGRP-like immunoreactivity (GCRP-LI) was measured by enzyme immunoassay (EIA).
In the rat dorsal spinal cord the experiments with Andolast were performed also in the presence of 100 nM charybdotoxin.

[3] = system: slices of guinea pig airways; assay: CGRP-LI outflow from slices of guinea pig airways (EIA); assay type: cell-based
Procedure: as §1

[4] = system: guinea pig isolated bronchial rings; assay: eNANC contractile response of isolated guinea pig bronchial rings; assay type: cell-based
Procedure: Guinea pig bronchial rings were mounted in organ baths. After an equilibration period the eNANC contractile response to EFS (5 Hz, 20 sec, 0.5 ms pulse width at 40 V) in the presence of atropine (1 μM) was studied. The effects of Andolast or its vehicle on the eNANC were studied in parallel experiments in the presence or absence of 100 nM charybdotoxin. The ability of Andolast to affect the direct bronchoconstrictor activity of SP was also studied.

[5] = system: human B lymphocytes from allergic donors; assay: IL-4 dependent IgE synthesis by human B lymphocytes; assay type: cell-based
T lymphocytes (Th2) = assay: Treatment course in atopic mild-moderate asthmatic patients; assay type: in vivo, human; details: standard treatment course

For `O=C(Nc1ccc(-c2nn[nH]n2)cc1)c1ccc(-c2nn[nH]n2)cc1` [Andolast, N-4-(1H-tetrazol-5-yl)phenyl-4-(1H-tetrazol-5-yl)benzamide], the “inhibitory effect on EFS-induced [Ca2+]i mobilization in presence of charybdotoxin” value ([1]; 100 nM charybdotoxin (ChTX)) was “completely reversed”, the “response to capsaicin ([Ca2+]i)” value ([1]; capsaicin 0.1 μM, pretreatment with Andolast 10 μM) was “not affected” and the “mobilization of [Ca2+]i in response to ionomycin” value ([1]; pre-treatment with Andolast 10 μM or its vehicle) was “similar”. The “response to EFS ([Ca2+]i mobilization)” value ([1]; pretreatment with Andolast compared to vehicle, EFS 10 Hz, 1 ms, 0.40 mA/cm2 for 10 sec) was “diminished the response to EFS”, the “inhibition of high K+ induced CGRP-LI outflow in presence of charybdotoxin” value ([2]; 100 nM charybdotoxin) was “completely abrogated” and the “maximum inhibition of the outflow of CGRP-LI induced by high K+ medium” value ([2]; Andolast 1 μM, KCl 80 mM) was 48 % of vehicle. The “outflow of CGRP-LI (without stimulus)” value ([2]; Andolast 0.1-1 μM, rat dorsal spinal cord slices) was “did not cause any significant increase”, the “outflow of CGRP-LI induced by high K+ medium” value ([2]; KCl 80 mM, rat dorsal spinal cord slices) was “concentration-dependent inhibition” and the “outflow of CGRP-LI (without stimulus)” value ([3]; Andolast 0.1-1 μM, guinea pig airway slices) was “did not cause any significant increase”. The inhibition at 1 µM ([3]; Cavia porcellus, Andolast 1 μM, KCl 80 mM, read-out: inhibition of the CGRP-LI outflow induced by high K+ medium) was 67%, the “contractile response to SP” value ([4]; Andolast 10 μM) was “did not affect” and the inhibition at 10 µM ([4]; Cavia porcellus, 10 μM Andolast, atropine 1 μM, read-out: maximum inhibition of the contractile response to EFS) was 45%. The “effect on EFS contraction in presence of charybdotoxin” value ([4]; charybdotoxin 0.1 μM) was “completely abrogated”, the “contractile response to EFS (eNANC)” value ([4]; in the presence of atropine (1 μM), pretreatment with Andolast) was “diminished dose-dependently” and the “IL-4 dependent IgE synthesis” value [5] was “potent inhibitory effect”. The “T lymphocytes (Th2) production of IL-5” value (T lymphocytes (Th2)) was “inhibitory effect” and the “percentage of eosinophils in the sputum” value (T lymphocytes (Th2)) was “decrease”.
